Reference: PubChem BioAssay (NCI)
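Five concentrations, 48 hours, 96-well plates. Here, GI50 denotes the concentration required for 50% inhibition of growth. At the TGI there is no net growth.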

Experiments:
Test in all cases: inhibition of tumour cell growth, NCI panel, 48 h
[1] = system: 786-0 renal
[2] = system: A498 renal
[3] = system: A549 NSCLC
[4] = system: ACHN renal
[5] = system: BT-549 breast
[6] = system: CAKI-1 renal
[7] = system: CCRF-CEM leukemia
[8] = system: COLO 205 colon
[9] = system: DU-145 prostate
[10] = system: EKVX NSCLC
[11] = system: HCC-2998 colon
[12] = system: HCT-15 colon
[13] = system: HL-60(TB) leukemia
[14] = system: HOP-62 NSCLC
[15] = system: HOP-92 NSCLC
[16] = system: HS 578T breast
[17] = system: HT29 colon
[18] = system: IGROV1 ovarian
[19] = system: K-562 leukemia
[20] = system: KM12 colon
[21] = system: LOX IMVI melanoma
[22] = system: M14 melanoma
[23] = system: MALME-3M melanoma
[24] = system: MCF7 breast
[25] = system: MDA-MB-231 breast
[26] = system: MDA-MB-435
[27] = system: MOLT-4 leukemia
[28] = system: NCI-H226 lung
[29] = system: NCI-H23 lung
[30] = system: NCI-H460 lung
[31] = system: NCI-H522 lung
[32] = system: NCI/ADR-RES ovarian
[33] = system: OVCAR-3 ovarian
[34] = system: OVCAR-4 ovarian
[35] = system: OVCAR-5 ovarian
[36] = system: OVCAR-8 ovarian
[37] = system: PC-3 prostate
[38] = system: RPMI-8226 leukemia
[39] = system: SF-268 CNS
[40] = system: SF-295 CNS
[41] = system: SF-539 CNS
[42] = system: SK-MEL-2 melanoma
[43] = system: SK-MEL-28 melanoma
[44] = system: SK-MEL-5 melanoma
[45] = system: SK-OV-3 ovarian
[46] = system: SN12C renal
[47] = system: SNB-19 CNS
[48] = system: SR leukemia
[49] = system: SW-620 colon
[50] = system: T-47D breast
[51] = system: TK-10 renal
[52] = system: U251 CNS
[53] = system: UACC-257 melanoma
[54] = system: UACC-62 melanoma
[55] = system: UO-31 renal

Cc1ccc(S(=O)(=O)NCCCNc2nc(Nc3ccc(N4CCN(C)CC4)cc3)nc3ccsc23)cc1
GI50 [1]: 1.77 µM | TGI [1]: 3.42 µM | GI50 [2]: 19.4 µM | TGI [2]: 34.5 µM | GI50 [3]: 14.9 µM | TGI [3]: 31.5 µM | GI50 [4]: 12 µM | TGI [4]: 25.2 µM | GI50 [5]: 3.56 µM | TGI [5]: 16.4 µM | GI50 [6]: 12.8 µM | TGI [6]: 25.5 µM | GI50 [7]: 2.73 µM | TGI [7]: 22.9 µM | GI50 [8]: 13.1 µM | TGI [8]: 29.8 µM | GI50 [9]: 16.4 µM | TGI [9]: 40.6 µM | GI50 [10]: 11.6 µM | TGI [10]: 28.7 µM | GI50 [11]: 5.34 µM | TGI [11]: 17.8 µM | GI50 [12]: 2.07 µM | TGI [12]: 5.54 µM | GI50 [13]: 2.01 µM | TGI [13]: 5.18 µM | GI50 [14]: 14.8 µM | TGI [14]: 30.5 µM | GI50 [15]: 1.94 µM | TGI [15]: 11.6 µM | GI50 [16]: 5.09 µM | TGI [16]: 26.7 µM | GI50 [17]: 4.4 µM | TGI [17]: 18.4 µM | GI50 [18]: 7.35 µM | TGI [18]: 21.8 µM | GI50 [19]: 2.56 µM | TGI [19]: > 100 µM | GI50 [20]: 14.3 µM | TGI [20]: 47.9 µM | GI50 [21]: 1.51 µM | TGI [21]: 3.06 µM | GI50 [22]: 1.6 µM | TGI [22]: 3.13 µM | GI50 [23]: 1.79 µM | TGI [23]: 3.42 µM | GI50 [24]: 3.52 µM | TGI [24]: 13.8 µM | GI50 [25]: 3.92 µM | TGI [25]: 18.7 µM | GI50 [26]: 9.14 µM | TGI [26]: 21.3 µM | GI50 [27]: 3.43 µM | TGI [27]: 28.7 µM | GI50 [28]: 8.46 µM | TGI [28]: 21.8 µM | GI50 [29]: 12.2 µM | TGI [29]: 26.5 µM | GI50 [30]: 13 µM | TGI [30]: 27.8 µM | GI50 [31]: 12.5 µM | TGI [31]: 26.2 µM | GI50 [32]: 15.5 µM | TGI [32]: 41.9 µM | GI50 [33]: 10.2 µM | TGI [33]: 42.1 µM | GI50 [34]: 10.3 µM | TGI [34]: 44.2 µM | GI50 [35]: 11.9 µM | TGI [35]: 25.9 µM | GI50 [36]: 10.9 µM | TGI [36]: 29.7 µM | GI50 [37]: 5.55 µM | TGI [37]: 21.6 µM | GI50 [38]: 2.5 µM | TGI [38]: 8.04 µM | GI50 [39]: 9.87 µM | TGI [39]: 46 µM | GI50 [40]: 9.03 µM | TGI [40]: 21.6 µM | GI50 [41]: 2.16 µM | TGI [41]: 5.78 µM | GI50 [42]: 15.1 µM | TGI [42]: 29 µM | GI50 [43]: 6.5 µM | TGI [43]: 19.4 µM | GI50 [44]: 12.9 µM | TGI [44]: 25.6 µM | GI50 [45]: 27.1 µM | TGI [45]: 77.8 µM | GI50 [46]: 13.6 µM | TGI [46]: 28 µM | GI50 [47]: 15.9 µM | TGI [47]: 32.4 µM | GI50 [48]: 2.84 µM | TGI [48]: > 100 µM | GI50 [49]: 12.5 µM | TGI [49]: 28 µM | GI50 [50]: 13.3 µM | TGI [50]: 37.2 µM | GI50 [51]: 17.7 µM | TGI [51]: 40.3 µM | GI50 [52]: 3.83 µM | TGI [52]: 18.7 µM | GI50 [53]: 2.19 µM | TGI [53]: 5.83 µM | GI50 [54]: 11.5 µM | TGI [54]: 23.6 µM | GI50 [55]: 7.94 µM | TGI [55]: 23.8 µM
